For one data set, the system named is COL1A1 mRNA. In words: mRNA expression of fibrosis genes in dermal fibroblasts (qPCR): COL1A1. As to conditions: Homo sapiens, Fibroblast, read-out: average inhibition of COL1A1 mRNA levels. In kind it is cell-based. Here is the method:
(§1) Dermal fibroblasts were obtained from clinically affected skin of systemic sclerosis (SSC) patients and from healthy donors (H). The fibroblasts were grown in DMEM medium containing 2mM of L-glutamine supplemented with 10% foetal bovine serum (FCS) and penicillin/streptomycin antibiotics.
(§2) Dermal fibroblasts were plated in DMEM 10% FCS in 24-well plates. 24h before the experiment, medium was switched to DMEM 0% FCS. […] Supernatants were removed and plates were freezed at -80°c. Fibroblasts RNA from each well-plate were extracted with NucleoSpin® RNA Plus kit (Macherey-Nagel) according to manufacter's instructions. Triplicates were done and RNA from triplicates were pooled together. The quantity and quality of RNA were evaluated by capillary electrophoresis (Bioanalyzer 2100, Agilent).
(§3) RNA was used for cDNA synthesis using the Transcriptor Reverse Transcriptase kit (Roche). qPCR reactions were run on a Light Cycler (Roche Molecular Systems Inc.) according to manufacter's instructions. The relative gene expression levels of COL1A1, COL1A2, MMP1, TIMP1, CCL2 and ACTA2 were calculated using the ΔΔCt method. Target mRNA levels were normalized to GAPDH.
(§4) Expression of the genes in the different treated conditions was presented as fold change compared with the gene expression of the same non-treated fibroblasts arbitrary fixed at 100%.

A further data set has as its system COL1A2 mRNA. The data set is described as follows: mRNA expression of fibrosis genes in dermal fibroblasts (qPCR): COL1A2. In kind it is cell-based. To be noted: Homo sapiens, Fibroblast, read-out: average inhibition of COL1A2 mRNA levels. The method, then: as §1, §2, §3, §4
For the next data set, the system named is MMP1 mRNA. In words: mRNA expression of fibrosis genes in dermal fibroblasts (qPCR): MMP1. In kind it is cell-based. To be noted: Homo sapiens, Fibroblast, read-out: average inhibition of MMP1 mRNA levels. Here is the method:
as §1, §2, §3, §4

The next data set concerns TIMP1 mRNA. The data set is described as follows: mRNA expression of fibrosis genes in dermal fibroblasts (qPCR): TIMP1. To be noted: Homo sapiens, Fibroblast, read-out: average inhibition of TIMP1 mRNA levels. In kind it is cell-based. Here is the method:
as §1, §2, §3, §4

For the next data set, the system named is CCL2 mRNA. The data set is described as follows: mRNA expression of fibrosis genes in dermal fibroblasts (qPCR): CCL2. To be noted: Homo sapiens, Fibroblast, 24h, SSc and healthy fibroblasts, vs non-treated, read-out: average inhibition of CCL2 mRNA levels. Type of data set: cell-based. The method, then: as §1, §2, §3, §4
The next data set deals with dermal fibroblasts. The data set is described as follows: cytotoxicity on the fibroblasts (data not shown). In kind it is cell-based, human.
Data set [1] deals with procollagen I. The data set is described as follows: release of procollagen I protein by dermal fibroblasts (ELISA), dose response. Type of data set: cell-based, human. To be noted: 48h, both cell types (SSC and healthy fibroblasts), vs non-treated. Here is the method:
as §1
Dermal fibroblasts were plated in DMEM 10% FCS supplemented with 20µg/mL of vitamin C in 96-well plates. 24h before the experiment, medium was switched to DMEM 0% FCS supplemented with 20µg/mL of vitamin C. […] Supernatants were collected to evaluate the procollagen I release level by ELISA kit (ref MK101, supplier Takara) according to manufacter's instructions. Triplicates were done. The level of procollagen I release was presented as fold change compared with the procollagen I release by the same non-treated fibroblasts arbitrary fixed at 100%.

For data set [2], the system named is procollagen I. The data set is described as follows: effect of a combination of low SN38 and 5FU doses on procollagen I release (ELISA). Type of data set: cell-based, human. To be noted: 5FU 1 µg/ml alone (condition B), 48h; patient SSC2, SSC3 or H2.
Experimental: Dermal fibroblasts were plated in DMEM 10% FCS supplemented with 20µg/mL of vitamin C in 96-well plates. 24h before the experiment, medium was switched to DMEM 0% FCS supplemented with 20µg/mL of vitamin C. Cells were treated for 48h with SN38 (0.006 µg/mL), 5FU (1 µg/mL) or a combination (SN38 0.006 µg/mL and 5FU 1 µg/mL) in DMEM 0% FCS supplemented with 20µg/mL of vitamin C. Supernatants were collected to evaluate the procollagen I release level by ELISA kit (ref MK101, supplier Takara) according to manufacter's instructions. Triplicates were done. The level of procollagen I release was presented as fold change compared with the procollagen I release by the same non-treated fibroblasts arbitrary fixed at 100%.
Data set [3] has as its system idiopathic pulmonary fibrosis. As to conditions: on one year, 72 week phase III trial; cited from earlier work.
The next data set concerns ACTA2 mRNA. The data set is described as follows: mRNA expression of fibrosis genes in dermal fibroblasts (qPCR): ACTA2. In kind it is cell-based. As to conditions: Homo sapiens, Fibroblast, read-out: average inhibition of ACTA2 mRNA levels. The method, then:
as §1, §2, §3, §4

Data set [4] relates to diffuse cutaneous systemic sclerosis. As to conditions: cited from earlier work.
For a further data set, the system named is diffuse scleroderma. In words: clinical case: patient with diffuse scleroderma treated with chemotherapy. Type of data set: in vivo, human. To be noted: methotrexate 7.5 mg to 10 mg per week for 5 years before admission. From the text:
A person was referred for fever and abdominal pain. Their medical history was mainly represented by a systemic scleroderma diagnosed 20 years before and with digestive, cutaneous and rheumatologic involvement. […] Blood test found anti topo-I antibodies to high level (141 IU/mL, normal range 0-29). […] The modified Rodnan score was 24/51.
Then, it was proposed to the patient 4 cycles of chemotherapy FOLFORINOX followed by rectal surgery.
The patient received 4 cycles of FOLFORINOX (oxaliplatine 85 mg/m^2, irinotecan 180 mg/m^2, 5-fluoro-uracil 400 mg/m^2 flash then 2400 mg/m^2 the following 46 hours). Cycles of chemotherapy were administered every 14 days on January 13 and 27, and February 11 and 25, 2014.
Then, the patient had surgery and according to post-surgical piece, it was realized 6 cycles of FOLFOX (folinic acid, oxaliplatine and 5-fluorouracil) with no new improvement during these last 6 cycles.

Where [5] appears, read: 5FU 384 µM (highest dose), 24h, SSc and healthy fibroblasts, vs non-treated.
[6] abbreviates: all the doses used in the procollagen I release test (irinotecan 0.006-40 µg/ml, SN38 0.00006-0.6 µg/ml, 5FU 0.3-80 µg/ml).
Where [7] appears, read: control group (cyclophosphamide), share of patients.
The mark [8] stands for this setting: irinotecan 32 µM (highest dose), 24h, SSc and healthy fibroblasts, vs non-treated.

Like-named read-outs stand apart in the source and are kept apart here.

With `O=c1[nH]cc(F)c(=O)[nH]1` [5FU, 5-Fluoro-1H,3H-pyrimidine-2,4-dione], the inhibition at 384 µM with COL1A1 mRNA (setting [5]) was 17%; in the data set on COL1A2 mRNA (setting [5]), 12%; in the data set on MMP1 mRNA (setting [5]), 37%; in the data set on TIMP1 mRNA (setting [5]), 15%; in the data set on CCL2 mRNA (5FU 384 µM (highest dose)), 31%. Further, the “cytotoxic on the fibroblasts” value is “not cytotoxic” in the data set on dermal fibroblasts (38.4 µM and 384 µM); “not cytotoxic” with dermal fibroblasts (setting [6]). Besides, in the data set with procollagen I [1] (80µg/mL), the “release of procollagen I protein” value is “significantly decreased”. The “procollagen I release” value in the data set with procollagen I [2] was “not observed”.

Regarding `Cc1ccc(=O)n(-c2ccccc2)c1` [Pirfenidone], the “reduce decline in lung function (forced vital capacity, FCV)” value in data set [3] is 4.4%.

In the case of `CCc1c2c(nc3ccc(O)cc13)-c1cc3c(c(=O)n1C2)COC(=O)[C@]3(O)CC` [SN38, 7-Ethyl-10-hydroxy-camptothecin], the inhibition at 1 µM worked out at 57.5% in the data set on COL1A1 mRNA (24 h); 52% in the data set on COL1A2 mRNA (24 h); 42% in the data set with MMP1 mRNA (24 h); 22% with TIMP1 mRNA (24 h); 55% with ACTA2 mRNA (24 h). The “cytotoxic on the fibroblasts” value with dermal fibroblasts (0.1 µM and 1 µM) is on record as “not cytotoxic”; in the data set on dermal fibroblasts (setting [6]), “not cytotoxic”. Moreover, the “release of procollagen I protein” value with procollagen I [1] (0.3 µg/mL) and with procollagen I [1] (0.6 µg/mL) was “significantly decreased” each time.

Consider `O=P1(N(CCCl)CCCl)NCCCO1` (stereo not shown) [cyclophosphamide], for which the “events, cumulative” value in data set [4] (control group (cyclophosphamide), at 2 years) is listed as 18.2%; in data set [4] (control group (cyclophosphamide), at 4 years), 26%. Also, the events in [4] (control group (cyclophosphamide), during the first year, no treatment-related deaths) is reported as 10.4%. Further, in data set [4] (setting [7]), the “Grade 3 or 4 adverse events” value is recorded as 37.0%. Besides, the Viral infections in data set [4] (setting [7]) is 1.3%. Besides, the “events (deaths and irreversible organ failures)” value in [4] (control group (cyclophosphamide, n = 77), median follow-up of 5.8 years, 23 deaths and 8 irreversible organ failures) is listed as 31.

Turning to `CCc1c2c(nc3ccc(OC(=O)N4CCC(N5CCCCC5)CC4)cc13)-c1cc3c(c(=O)n1C2)COC(=O)[C@]3(O)CC` [irinotecan, (S)-4,11-diethyl-3,4,12,14-tetrahydro-4-hydroxy-3,14-dioxo1H-pyrano[3',4':6,7]-indolizino[1,2-b]quinolin-9-yl-[1,4'bipiperidine]-1'-carboxylate], the inhibition at 32 µM in the data set on COL1A1 mRNA (setting [8]) is 27%; with COL1A2 mRNA (setting [8]), 22%; in the data set on MMP1 mRNA (setting [8]) it was 32%; with CCL2 mRNA (irinotecan 32 µM (highest dose)), 19%; with ACTA2 mRNA (setting [8]) it was 33%. Further, the “cytotoxic on the fibroblasts” value with dermal fibroblasts (3.2 µM and 32 µM) was “not cytotoxic”; with dermal fibroblasts (setting [6]), “not cytotoxic”. Also, the “release of procollagen I protein” value in the data set with procollagen I [1] (40µg/mL) is “significantly decreased”.

As for `CN(Cc1cnc2nc(N)nc(N)c2n1)c1ccc(C(=O)N[C@@H](CCC(=O)O)C(=O)O)cc1` [methotrexate], the “impact on scleroderma evolution” value in the data set with diffuse scleroderma is given as “without substantial impact”.

The record behind these values is patent publication EP3300733A1, “SUBSTANCE SELECTED AMONG IRINOTECAN, AN IRINOTECAN ACTIVE METABOLITE, 5-FLUORO-URACILE, A PHARMACEUTICAL SALT THEREOF AND A MIXTURE THEREOF, FOR USE IN THE TREATMENT OF FIBROSIS” (Centre Hospitalier Universitaire de Bordeaux, priority 2016, dated 2018).
